The numbers were not newly measured in US20240016441A1 (priority 2023, published 2024), which cites them from elsewhere.

One data set relates to BDNF. The settings on record: male athletes, p<0.05.
Data set [1] deals with dopaminergic neurons. The settings on record: related to a glyoxalase pathway.
The conditions of data set [2]: for plasma L-lactate to brain metabolism: occipital-parietal lobe.
The test system of data set [3] is dopaminergic neurons. Particulars: neurons treated with L-lactate.
Another data set has as its system glabellar reflex. The settings on record: successful levodopa treatment, patients with Parkinson's disease.
For data set [4] the following is noted: 84 mEq/L at 5 ml*kg^-1*h^-1 for 3.5 hours, single anesthetized patient.
For data set [5] the following is noted: in vivo.
For data set [6] the following is noted: traumatic brain injury patients and healthy controls.

Like-named read-outs stand apart in the source and are kept apart here.

`CC(O)C(=O)[O-].[Na+]` (racemic) [sodium DL-lactate]: the BDNF blood concentration entry in the data set on BDNF is recorded as “increase”.
As for `C[C@@H](O)C(=O)O` [D-lactate], in the data set with dopaminergic neurons [1], the “survival of dopaminergic neurons” value is reported as “increase survival of dopaminergic neurons”.
On to `C[C@H](O)C(=O)O` [L-lactate], for which the “plasma L-lactate to brain metabolism” value is reported as 10% in data set [2] (basal plasma L-lactate concentrations of ~1.0 mmol/L) and not above 60% in data set [2] (high physiologic plasma concentrations). In the data set on dopaminergic neurons [3], the “effect on dopaminergic neurons” value was “apoptosis of dopaminergic neurons”.
On to `N[C@@H](Cc1ccc(O)c(O)c1)C(=O)O` [levodopa], for which the glabellar reflex entry with glabellar reflex is “reversal of the glabellar reflex”.
With `C[C@H](O)C(=O)[O-].[Na+]` [sodium L-lactate], the vital signs entry in data set [4] is listed as “without any significant change in vital signs”. In addition, the adverse effects entry in data set [5] is “without any adverse effects”.
Turning to `[13CH3]C(O)C(=O)[O-].[Na+]` [sodium [3-^13C] L-lactate], the adverse effects result in data set [2] (350 mmol/L, priming dose then continuous infusion for ~120 min) is on record as “without any adverse effects”. In data set [6], the complications entry is recorded as “without serious complications” and the “peak L-lactate blood concentration” value was 10.6 mg/dL.
